Measurements: US20140309257A1, “TOPOISOMERASE INHIBITORS AND METHODS OF MAKING AND USE AS THERAPEUTIC AGENTS” (THE REGENTS OF THE UNIVERSITY OF COLORADO, a body corporate, priority 2011, published 2014)

Columns and labels:
[1] = test system: triple negative MDA-MB-231 breast carcinoma spheroids; assay: 3D-spheroid invasion; format: cell-based, human; conditions: through reversion of EMT
Excerpt: A 3D-spheroid culture formulation was developed that allows for the culture of single uniform spheroids with variety of cell types in 96-well plates that can be used with a variety of epithelial-mesenchymal transition (EMT) biomarker reporters (see, U.S. Patent Publication No. 2011/0143960 A1; Li Q, Chen C, Kapadia A, Zhou Q, Harper M K, et al. (2011), 3D Models of epithelial-mesenchymal transition in breast cancer metastasis: high-throughput screening assay development, validation, and pilot screen. J Biomol Screen 16: 141-154). The 3D-spheroid based assays with neo (control) and derivatives were used to test their ability to revert EMT or induce cytotoxicity against human carcinomas resistant to clinically used TopoIIα drugs, including: MDA-MB-231, MCF7/AdrVP breast cancer, and SW480, Colo201, and DLD-1 (APC mutant) colon cancer cells. This 3D-model utilizes a luciferase reporter of vimentin, a key mesenchymal biomarker expressed in these cells. Vimentin expression is measured using a live spheroid luciferin substrate (caged luciferin) followed by a multiplex assay measuring spheroid viability. […]
Active compounds are then tested for their ability to inhibit spheroid invasion, as follows: Spheroid invasion is measured using 15 spheroids per sample group. […] Invading cells will be measured using an OPERETTA™ high content imaging system.

[2] = test system: human colon tumor (HCT-116); conditions: compared with 9-aminocamptothecin; cited from earlier work
[3] = molecular target: TopoIIα (Homo sapiens, UniProt P11388); assay: In vitro ATP hydrolysis assay (malachite green); format: biochemical
Description: Efficacy of the ATP-competitive inhibition of TopoIIα inhibitors of the invention are tested in vitro using an ATP hydrolysis assay that quantifies inorganic phosphate through the formation of a high molar absorptivity complex with malachite green and molybdate, adapted for use in 384-well plates, with a total reaction volume of 15 μL. This assay was first utilized to determine the Km of TopoIIα for its natural substrate, ATP, using ATP concentrations ranging from 62.5-1600 μM. To measure the apparent Km, the same reactions were repeated in the presence of 2, 5, or 10 μM neo. Absorbance at 620 nm was measured using a microtiter plate reader. To determine the Ki the same method was used with the following modifications: inhibitors (0.1-10 μM) in reaction buffer (without DNA and DTT) are added to the complete reaction buffer and preincubated for 10 min at 37° C. Reactions were initiated by the addition of 600 μM ATP and incubated for 30 min at 37° C. The IC50 value was determined and the Ki was calculated using the Cheng-Prusoff equation. Experiments were repeated in triplicate and GraphPad Prism software was used to perform non-linear fits (method of least squares) to the Michaelis-Menten kinetics (Km and Vmax) or the dose-response inhibition model (IC50 values).

[4] = test system: DNA; conditions: below 100 μM concentrations; cited from earlier work
[5] = test system: xenograft tumors; conditions: in mice; compared with etoposide; cited from earlier work
[6] = molecular target: Pgp (Homo sapiens, UniProt P08183); conditions: cited from earlier work
Chain of Pgp (P08183 whole entry): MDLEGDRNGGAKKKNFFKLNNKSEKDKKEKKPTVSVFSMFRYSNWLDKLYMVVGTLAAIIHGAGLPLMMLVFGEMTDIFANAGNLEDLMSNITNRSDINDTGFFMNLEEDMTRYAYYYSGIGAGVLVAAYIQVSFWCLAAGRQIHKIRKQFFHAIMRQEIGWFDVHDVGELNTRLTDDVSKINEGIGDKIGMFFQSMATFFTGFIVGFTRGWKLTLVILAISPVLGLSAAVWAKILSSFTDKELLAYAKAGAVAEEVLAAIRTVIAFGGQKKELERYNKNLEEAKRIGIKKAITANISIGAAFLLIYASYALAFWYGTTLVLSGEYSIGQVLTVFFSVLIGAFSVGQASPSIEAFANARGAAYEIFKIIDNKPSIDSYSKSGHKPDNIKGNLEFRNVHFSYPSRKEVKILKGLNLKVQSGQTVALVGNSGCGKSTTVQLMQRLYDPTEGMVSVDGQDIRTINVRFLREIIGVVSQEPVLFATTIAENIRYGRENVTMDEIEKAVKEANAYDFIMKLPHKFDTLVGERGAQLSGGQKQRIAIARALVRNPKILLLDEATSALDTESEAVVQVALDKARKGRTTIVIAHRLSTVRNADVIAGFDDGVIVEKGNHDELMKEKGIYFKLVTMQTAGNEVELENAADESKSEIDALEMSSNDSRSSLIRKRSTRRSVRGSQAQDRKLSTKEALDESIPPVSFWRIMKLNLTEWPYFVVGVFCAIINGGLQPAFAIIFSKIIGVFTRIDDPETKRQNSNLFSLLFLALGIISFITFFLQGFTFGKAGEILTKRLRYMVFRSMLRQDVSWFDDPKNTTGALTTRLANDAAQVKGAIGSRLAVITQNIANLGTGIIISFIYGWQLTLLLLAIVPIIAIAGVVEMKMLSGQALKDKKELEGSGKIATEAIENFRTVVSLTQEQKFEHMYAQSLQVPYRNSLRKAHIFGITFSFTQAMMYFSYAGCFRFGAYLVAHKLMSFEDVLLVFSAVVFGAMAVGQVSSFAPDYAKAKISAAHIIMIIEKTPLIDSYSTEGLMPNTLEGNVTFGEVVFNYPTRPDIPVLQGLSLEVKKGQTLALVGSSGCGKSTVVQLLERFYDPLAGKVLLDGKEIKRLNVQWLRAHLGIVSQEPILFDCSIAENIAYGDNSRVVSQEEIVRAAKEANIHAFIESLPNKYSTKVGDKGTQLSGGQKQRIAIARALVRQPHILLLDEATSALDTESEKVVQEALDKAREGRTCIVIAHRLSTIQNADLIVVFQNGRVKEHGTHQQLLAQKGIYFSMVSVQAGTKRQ

Chain of TopoIIα (P11388 whole entry): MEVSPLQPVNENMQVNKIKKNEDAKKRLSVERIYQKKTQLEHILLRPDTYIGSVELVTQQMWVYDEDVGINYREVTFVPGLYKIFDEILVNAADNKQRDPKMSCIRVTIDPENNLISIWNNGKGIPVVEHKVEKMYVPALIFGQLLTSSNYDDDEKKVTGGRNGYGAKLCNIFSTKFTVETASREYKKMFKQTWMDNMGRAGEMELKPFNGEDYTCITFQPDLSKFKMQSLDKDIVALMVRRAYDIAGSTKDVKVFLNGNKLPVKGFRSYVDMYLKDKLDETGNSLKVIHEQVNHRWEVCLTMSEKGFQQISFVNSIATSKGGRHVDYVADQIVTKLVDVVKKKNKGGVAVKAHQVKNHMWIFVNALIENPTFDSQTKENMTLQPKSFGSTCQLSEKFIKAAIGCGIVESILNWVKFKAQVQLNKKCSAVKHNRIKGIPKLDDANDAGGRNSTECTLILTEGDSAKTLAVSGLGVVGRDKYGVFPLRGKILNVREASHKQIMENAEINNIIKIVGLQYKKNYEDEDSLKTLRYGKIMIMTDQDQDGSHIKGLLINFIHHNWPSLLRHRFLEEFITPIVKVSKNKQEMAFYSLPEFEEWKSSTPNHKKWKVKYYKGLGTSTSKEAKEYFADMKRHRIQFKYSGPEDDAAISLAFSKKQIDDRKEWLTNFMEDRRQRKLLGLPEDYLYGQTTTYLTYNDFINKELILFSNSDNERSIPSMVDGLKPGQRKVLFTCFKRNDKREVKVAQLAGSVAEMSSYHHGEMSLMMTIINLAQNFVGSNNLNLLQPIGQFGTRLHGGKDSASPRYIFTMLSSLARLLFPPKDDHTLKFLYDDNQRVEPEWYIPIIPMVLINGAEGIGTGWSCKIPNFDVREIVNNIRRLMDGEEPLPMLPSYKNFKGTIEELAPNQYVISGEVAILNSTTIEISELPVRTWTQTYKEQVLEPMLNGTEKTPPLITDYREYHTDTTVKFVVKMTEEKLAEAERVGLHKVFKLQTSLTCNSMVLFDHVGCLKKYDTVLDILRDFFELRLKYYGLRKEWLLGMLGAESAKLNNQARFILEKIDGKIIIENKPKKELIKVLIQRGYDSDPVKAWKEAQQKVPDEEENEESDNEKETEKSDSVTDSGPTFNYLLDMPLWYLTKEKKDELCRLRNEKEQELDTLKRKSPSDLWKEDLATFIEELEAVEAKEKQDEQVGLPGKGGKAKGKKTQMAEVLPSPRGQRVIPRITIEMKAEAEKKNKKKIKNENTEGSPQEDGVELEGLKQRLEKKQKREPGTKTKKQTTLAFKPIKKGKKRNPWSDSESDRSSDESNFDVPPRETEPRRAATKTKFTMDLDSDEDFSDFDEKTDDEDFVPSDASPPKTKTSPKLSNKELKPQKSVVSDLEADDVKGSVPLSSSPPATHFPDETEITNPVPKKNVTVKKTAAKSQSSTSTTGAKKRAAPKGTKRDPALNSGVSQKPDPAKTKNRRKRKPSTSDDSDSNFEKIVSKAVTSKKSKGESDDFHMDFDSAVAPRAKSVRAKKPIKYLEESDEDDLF

Ki ([3]; corresponding to the IC50, calculated using the Cheng-Prusoff equation, read-out: Ki, inhibition of TopoIIα ATPase function): 0.8 ± 0.3 µM | increase of the apparent Km of TopoIIα for ATP ([3]; over a concentration range from 0-10 μM): approximately 2 fold | IC50 ([3]; read-out: IC50, inhibition of TopoIIα ATPase function): 2 µM
Structure (SMILES): Cn1ccc2c(c1=O)C(=O)c1nccc3c1c-2nc1ccccc13 [neo, Neoamphimedine]
inhibition of invasive potential of spheroids [1]: significantly inhibits the invasive potential | efficacy in HCT-116 xenografts [2]: as efficacious as | stabilization of the cleaved complex, DNA strand breaks or intercalation of DNA [4]: without stabilizing the cleaved complex, or causing significant DNA strand breaks or intercalation of DNA | inhibition of the growth of xenograft tumors [5]: as effective as etoposide | substrate for Pgp-dependent MDR [6]: not a substrate
